The text below walks through data of PubChem BioAssay AID218 (DTP/NCI, 2004).

For the test, the system named is C57BL/6 mice, Adenocarcinoma 755 sc, tumor weight T/C. The experiment in a line: NCI In Vivo Anticancer Drug Screen. Data for tumor model Adenocarcinoma 755 (subcutaneous) in C57BL/6 mice. The following applies: endpoint: mean tumor weight, higher = larger tumour. Here is the method: The antitumor activity of compounds was measured in mice bearing transplantable tumors. Survival or tumor size were measured and the results are expressed as the measurement made in the treated group (T) divided by the measurement made in the vehicle treated control group (C). The tumor model used in this assay is Adenocarcinoma 755 (subcutaneous) in C57BL/6 mice

Setting [1] is: dose: 5.0 mg/kg/injection, schedule: Q01DX011 (ip), vehicle: saline.
Where [2] appears, read: dose: 10.0 mg/kg/injection, schedule: Q01DX011 (ip), vehicle: saline.
Where [3] appears, read: dose: 37.5 mg/kg/injection, schedule: Q01DX011 (ip), vehicle: saline.
Where [4] appears, read: dose: 75.0 mg/kg/injection, schedule: Q01DX011 (ip), vehicle: saline.
[5] abbreviates: dose: 25.0 mg/kg/injection, schedule: Q01DX011 (ip), vehicle: saline.
Where [6] appears, read: dose: 50.0 mg/kg/injection, schedule: Q01DX011 (ip), vehicle: saline.
The mark [7] stands for this setting: dose: 100.0 mg/kg/injection, schedule: Q01DX011 (ip), vehicle: saline.
Where [8] appears, read: dose: 75.0 mg/kg/injection, schedule: Q02DX006 (ip), vehicle: saline.
Where [9] appears, read: dose: 100.0 mg/kg/injection, schedule: Q02DX006 (ip), vehicle: saline.
Where [10] appears, read: dose: 200.0 mg/kg/injection, schedule: Q01DX011 (ip), vehicle: saline.
Setting [11] is: dose: 15.0 mg/kg/injection, schedule: Q01DX011 (ip), vehicle: saline.
The mark [12] stands for this setting: dose: 150.0 mg/kg/injection, schedule: Q02DX006 (ip), vehicle: saline.
[13] abbreviates: dose: 200.0 mg/kg/injection, schedule: Q02DX006 (ip), vehicle: saline.

Values joined by “and” are separate entries in the source; they are usually repeats but may differ in a detail not shown here. Identical values can stand only once.

Regarding `CC1CN1P(=S)(N1CC1C)N1CC1C` (centres undefined), the T/C – broadly, the result in the treated group divided by that in the control group, in per cent – (dose: 1.25 mg/kg/injection, schedule: Q01DX011 (ip), vehicle: saline) was 67 % of control; the T/C (dose: 2.5 mg/kg/injection, schedule: Q01DX011 (ip), vehicle: saline) was 78 % of control; the T/C under setting [1] was 91 % of control; the T/C under setting [2] is 73 % of control.

Consider `Nc1nc(F)nc2c1ncn2C1OC(CO)C(O)C1O` (centres undefined), for which the T/C (dose: 2.0 mg/kg/injection, schedule: Q01DX011 (ip), vehicle: carboxymethylcellulose (CMC)) is 87 % of control.

In the case of `Clc1cc(N2CC2)nc(N2CC2)n1`, the T/C by setting is: (dose: 5.0 mg/kg/injection, schedule: Q02DX006 (ip), vehicle: other) 79 % of control; (dose: 7.5 mg/kg/injection, schedule: Q02DX006 (ip), vehicle: other) 72 % of control; (dose: 10.0 mg/kg/injection, schedule: Q02DX006 (ip), vehicle: other) 18 % of control.

As for `Nc1nc2n[nH]nc2c(=O)[nH]1`, the T/C was 51 % of control and 66 % of control (dose: 37.5 mg/kg/injection, schedule: Q01DX007 (sc), vehicle: carboxymethylcellulose (CMC)); 10 % of control under setting [3]; 25 % of control (dose: 37.5 mg/kg/injection, schedule: Q01DX011 (sc), vehicle: saline); 16 % of control (dose: 50.0 mg/kg/injection, schedule: Q01DX011 (sc), vehicle: saline); 57 % of control (dose: 50.0 mg/kg/injection, schedule: Q02DX006 (ip), vehicle: other); 64 % of control (dose: 60.0 mg/kg/injection, schedule: Q02DX006 (ip), vehicle: other). The T/C under setting [4] was 6 % of control; the T/C (dose: 75.0 mg/kg/injection, schedule: Q01DX011 (sc), vehicle: saline) is 4 % of control; the T/C (dose: 100.0 mg/kg/injection, schedule: Q01DX007 (sc), vehicle: carboxymethylcellulose (CMC)) is 5 % of control and 14 % of control.

In the case of `CCn1cnc2c(Cl)ncnc21`, the T/C by setting is: under setting [5], 29 % of control; under setting [6], 10 % of control; under setting [7], 1 % of control.

Turning to `Clc1ncnc2c1ncn2C1CCCC1`, the T/C is, setting by setting: (dose: 25.0 mg/kg/injection, schedule: Q01DX011 (ip), vehicle: carboxymethylcellulose (CMC)) 79 % of control; (dose: 50.0 mg/kg/injection, schedule: Q01DX011 (ip), vehicle: carboxymethylcellulose (CMC)) 118 % of control; (dose: 75.0 mg/kg/injection, schedule: Q01DX011 (ip), vehicle: carboxymethylcellulose (CMC)) 71 % of control; (dose: 100.0 mg/kg/injection, schedule: Q01DX011 (ip), vehicle: carboxymethylcellulose (CMC)) 18 % of control.

With `O=[N+]([O-])c1ccc(CSc2ncnc3nc[nH]c23)cc1`, the T/C under setting [7] was 4 % of control.

Turning to `O=c1[nH]c(=O)c2n[nH]nc2[nH]1`, the T/C runs as follows: under setting [4], 154 % of control; (dose: 150.0 mg/kg/injection, schedule: Q01DX011 (ip), vehicle: saline) 115 % of control.

For `CN(CC(=O)O)C(=N)N`, the T/C is 105 % of control (dose: 250.0 mg/kg/injection, schedule: Q01DX011 (ip), vehicle: saline); 110 % of control (dose: 500.0 mg/kg/injection, schedule: Q01DX011 (ip), vehicle: saline); 57 % of control (dose: 1000.0 mg/kg/injection, schedule: Q01DX011 (ip), vehicle: saline); 102 % of control (dose: 2000.0 mg/kg/injection, schedule: Q01DX011 (ip), vehicle: saline).

Consider `Clc1ncnc2nc[nH]c12`, for which, under setting [3], the T/C is 1 % of control.

Turning to `NC(=O)c1ccc(N)nc1`, the T/C (dose: 1.0 mg/kg/injection, schedule: Q01DX011 (ip), vehicle: saline) was 92 % of control and 94 % of control; the T/C (dose: 1.5 mg/kg/injection, schedule: Q01DX011 (ip), vehicle: saline) is 52 % of control; the T/C (dose: 2.0 mg/kg/injection, schedule: Q01DX011 (ip), vehicle: saline) is 48 % of control.

Regarding `NC(=S)N/N=C/c1cccc([N+](=O)[O-])c1`, the T/C reads like this: under setting [8], 36 % of control; under setting [9], 47 % of control.

As to `c1ccc(Sc2ncnc3nc[nH]c23)cc1`, the T/C runs as follows: under setting [6], 15 % of control; under setting [4], 14 % of control; under setting [7], 5 % of control.

In the case of `CN(C)C1C(=O)C(C(N)=O)=C(O)C2(O)C(=O)C3=C(O)c4c(O)cccc4C(C)(O)C3C(O)C12` (centres undefined), the T/C was 58 % of control (dose: 125.0 mg/kg/injection, schedule: Q02DX006 (ip), vehicle: water) and 106 % of control (dose: 150.0 mg/kg/injection, schedule: Q02DX006 (ip), vehicle: water).

For `CNC=O`, the T/C is, setting by setting: under setting [5], 92 % of control; under setting [6], 112 % of control; under setting [7], 64 % of control and 82 % of control; (dose: 125.0 mg/kg/injection, schedule: Q01DX011 (ip), vehicle: saline) 98 % of control; (dose: 175.0 mg/kg/injection, schedule: Q02DX006 (ip), vehicle: water) 40 % of control; under setting [10], 9 % of control and 30 % of control. Moreover, the T/C (dose: 225.0 mg/kg/injection, schedule: Q02DX006 (ip), vehicle: water) was 56 % of control.

With `c1ccc2nc(-c3cc4ccccc4s3)ccc2c1`, the T/C (dose: 300.0 mg/kg/injection, schedule: Q01DX011 (ip), vehicle: saline) was 11 % of control.

Take `Oc1ccc2ccccc2c1N=Nc1ccc(F)cc1`: the T/C runs as follows: (dose: 6.25 mg/kg/injection, schedule: Q01DX011 (ip), vehicle: saline) 55 % of control; (dose: 12.5 mg/kg/injection, schedule: Q01DX011 (ip), vehicle: saline) 45 % of control; under setting [5], 37 % of control; under setting [6], 30 % of control and 35 % of control; under setting [7], 28 % of control; under setting [10], 12 % of control. The T/C (dose: 400.0 mg/kg/injection, schedule: Q01DX011 (ip), vehicle: saline) is 28 % of control.

`Nc1[nH]c(=O)nc2c1ncn2C1OC(CO)C(O)C1O` (centres undefined): the T/C (dose: 20.0 mg/kg/injection, schedule: Q01DX011 (ip), vehicle: saline) was 100 % of control; the T/C (dose: 30.0 mg/kg/injection, schedule: Q01DX011 (ip), vehicle: saline) is 42 % of control; the T/C (dose: 40.0 mg/kg/injection, schedule: Q01DX011 (ip), vehicle: saline) was 58 % of control.

With `Cn1cc(NC(=O)c2cc(NC(=O)CN=C(N)N)cn2C)cc1C(=O)NCCC(=N)N`, the T/C by setting is: (dose: 20.0 mg/kg/injection, schedule: Q02DX006 (ip), vehicle: water) 95 % of control; (dose: 25.0 mg/kg/injection, schedule: Q02DX006 (ip), vehicle: water) 69 % of control; (dose: 30.0 mg/kg/injection, schedule: Q02DX006 (ip), vehicle: water) 31 % of control.

As for `O=CNC(Cc1ccc(N(CCCl)CCCl)cc1)C(=O)O` (centres undefined), the T/C reads like this: (dose: 40.0 mg/kg/injection, schedule: Q01DX011 (ip), vehicle: carboxymethylcellulose (CMC)) 39 % of control; (dose: 80.0 mg/kg/injection, schedule: Q01DX011 (ip), vehicle: carboxymethylcellulose (CMC)) 1 % of control.

For the compound `NC(=S)N/N=C/c1ccc([N+](=O)[O-])cc1`, the T/C under setting [8] was 22 % of control and the T/C under setting [9] is 31 % of control.

Take `CCCNc1ncnc2[nH]ncc12`: the T/C is, setting by setting: under setting [2], 62 % of control; under setting [11], 39 % of control.

On to `N/C(=N/N=C/c1ccc([N+](=O)[O-])cc1)N[N+](=O)[O-]`, for which the T/C reads like this: under setting [12], 53 % of control; under setting [13], 37 % of control.

Consider `CSc1ncnc2c1ncn2C1OC(CO)C(O)C1O` (centres undefined), for which the T/C under setting [1] is 78 % of control, the T/C under setting [2] is 50 % of control and the T/C under setting [11] was 67 % of control.

Consider `COC(=O)C(N)CCl` (centres undefined), for which the T/C reads like this: under setting [12], 74 % of control; under setting [13], 83 % of control.

Turning to `S=c1[nH]c(=S)c2[nH]cnc2[nH]1`, the T/C under setting [7] was 13 % of control and the T/C under setting [10] is 7 % of control.

Consider `O=C(O)C(=O)CF`, for which the T/C under setting [6] is 63 % of control.
